We go through 34 molecules from US8536202B2, “Triazole-substituted anthranilamides as pesticides” (Bayer Cropscience AG, priority 2010, dated 2013).

SMILES strings stand for the structures. Like-named read-outs stand apart in the source and are kept apart here.

A short description of data set [1]: log P determination by HPLC on reversed-phase columns (EEC Directive 79/831 Annex V.A8). The note with it: pH 2.7. The format is physicochemical. In outline:
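Calibration used unbranched alkan-2-ones of 3 to 16 carbons with known log P, values interpolated linearly from retention times between neighbouring standards. Acidic-range LC-MS run at pH 2.7, eluents aqueous and acetonitrile formic acid 0.1%, linear gradient 10% to 95% acetonitrile.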

Data set [2] deals with caterpillars of the armyworm (Spodoptera frugiperda). Nature of the data set: Spodoptera frugiperda test (SPODFR spray treatment). The format is in vivo. The note with it: 168 h, after 7 days; for pest or weed control at 100 g/ha: read-out: activity in %. The essentials:
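Percent caterpillar mortality read 7 days after infestation (0% none killed, 100% all killed). Treatment was a spray of the acetone/DMF/emulsifier formulation, water-diluted to test concentration, onto Zea mays leaf discs, allowed to dry before larvae were added.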

In data set [3] the test system is larvae of the mustard beetle (Phaedon cochleariae). Briefly: Phaedon test (PHAECO spray treatment). The conditions noted are these: 168 h, 100 g/ha, after 7 days, read-out: activity in %. The data set is classed as in vivo. In outline:
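Mortality of mustard beetle larvae, expressed as percent killed (100% all, 0% none), assessed 7 days after spraying. Spray liquor made from compound in acetone plus dimethylformamide with alkylaryl polyglycol ether, diluted in emulsifier-containing water to the desired concentration.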

[4] abbreviates: reversed-phase C18 HPLC column, HPLC on reversed-phase columns (C 18), EEC Directive 79/831 Annex V.A8, read-out: logP.

With `Cc1cc(Cl)cc(C(=O)NC2CC2)c1NC(=O)c1cc(Cn2ncc(C(F)(C(F)(F)F)C(F)(F)F)n2)nn1-c1ncccc1Cl` [Example 264], the chromatographic logP in data set [1] worked out at 4.01. Moreover, the pest or weed control at 100 g/ha in data set [2] and in data set [3] was 100% in each case.

In data set [1], `Cc1cc(Cl)cc(C(=O)NC(C)(C)C)c1NC(=O)c1cc(Cn2ncc(C(F)(F)F)n2)nn1-c1ncccc1Cl` [Example 140] registered a chromatographic logP of 3.85. Further, the pest or weed control at 100 g/ha in data set [2] and in data set [3] was 100% throughout.

In the case of `CNC(=O)c1cc(Cl)cc(C)c1NC(=O)c1cc(Cn2nnc3c(Cl)c(Cl)c(Cl)cc32)nn1-c1ncccc1Cl` [Example 88], in data set [1], the chromatographic logP turned out to be 3.75. In addition, the pest or weed control at 100 g/ha in data set [2] and in data set [3] was 100% each time.

Take `CNC(=O)c1cc(Cl)cc(C)c1NC(=O)c1cc(Cn2ncc(C(F)(F)F)n2)nn1-c1ccccc1Cl` [Example 287]: the chromatographic logP in data set [1] (setting [4]) was found to be 3.45. Also, the pest or weed control at 100 g/ha in data set [2] and in data set [3] was 100% in each case.

In the case of `CNC(=O)c1cc(F)cc(C)c1NC(=O)c1cc(Cn2ncc(C(F)(F)F)n2)nn1-c1ncccc1Cl` [Example 167], the chromatographic logP in data set [1] amounted to 2.63. Also, the pest or weed control at 100 g/ha in data set [2] and in data set [3] was 100% in each case.

Regarding `Cc1cc(Cl)cc(C(=O)NC2CC2)c1NC(=O)c1cc(Cn2nc(C(F)(F)F)c(C(F)(F)F)n2)nn1-c1ncccc1Cl` [Example 394], the chromatographic logP in data set [1] was determined as 3.96. Also, the pest or weed control at 100 g/ha in data set [2] and in data set [3] was 100% each time.

`Cc1cc(C#N)cc(C(=O)NC(C)(C)C)c1NC(=O)c1cc(Cn2cc(-c3ccc(Cl)cc3Cl)nn2)nn1-c1ncccc1Cl` [Example 55]: the chromatographic logP in data set [1] came to 4.06. Moreover, the pest or weed control at 100 g/ha in data set [2] and in data set [3] was 100% throughout.

In turn, `Cc1cc(I)cc(C(=O)NCC2CC2)c1NC(=O)c1cc(Cn2cc(C(F)(F)F)nn2)nn1-c1ncccc1Cl` [Example 214] returned a chromatographic logP in data set [1] of 3.45. Also, the pest or weed control at 100 g/ha in data set [2] and in data set [3] was 100% in each case.

In data set [1], `CNC(=O)c1cc(C#N)cc(C)c1NC(=O)c1cc(Cn2cc(-c3cccc(Cl)c3)nn2)nn1-c1ncccc1Cl` [Example 36] gave a chromatographic logP of 2.86. The pest or weed control at 100 g/ha in data set [2] and in data set [3] was 100% each time.

In data set [1], `CNC(=O)c1cc(C#N)cc(C)c1NC(=O)c1cc(Cn2nnc3c(Br)cc(OC(F)(F)F)cc32)nn1-c1ncccc1Cl` [Example 99] gave a chromatographic logP of 3.37. For the same molecule, the pest or weed control at 100 g/ha in data set [2] and in data set [3] was 100% each time.

Take `Cc1cc(Cl)cc(C(=O)NC(C)C2CC2)c1NC(=O)c1cc(Cn2ccnn2)nn1-c1ncccc1Cl` (stereo not drawn) [Example 117]: the chromatographic logP in data set [1] came to 2.41. The pest or weed control at 100 g/ha in data set [2] and in data set [3] was 100% each time.

Molecule `CNC(=O)c1cc(Cl)cc(C)c1NC(=O)c1cc(Cn2nc3ccc(Br)cc3n2)nn1-c1ncccc1Cl` [Example 87] had a chromatographic logP in data set [1] of 3.39. The pest or weed control at 100 g/ha in data set [2] and in data set [3] was 100% each time.

As for `Cc1cc(Br)cc(C(=O)NC(C)(C)C)c1NC(=O)c1cc(Cn2ncc(C(F)(F)F)n2)nn1-c1ncccc1Cl` [Example 176], in data set [1], the chromatographic logP worked out at 4.65. Also, the pest or weed control at 100 g/ha in data set [2] and in data set [3] was 100% each time.

`N#CCNC(=O)c1cc(Cl)cc(Cl)c1NC(=O)c1cc(Cn2cc(C(F)(F)F)nn2)nn1-c1ncccc1Cl` [Example 205] yielded a chromatographic logP in data set [1] of 2.63. The pest or weed control at 100 g/ha in data set [2] and in data set [3] was 100% throughout.

`Cc1cc(C#N)cc(C(=O)NC(C)C)c1NC(=O)c1cc(Cn2nncc2C(F)(F)F)nn1-c1ncccc1Cl` [Example 216] gave a chromatographic logP in data set [1] of 2.63. Besides, the pest or weed control at 100 g/ha in data set [2] and in data set [3] was 100% throughout.

`CNC(=O)c1cc(Cl)cc(C)c1NC(=O)c1cc(Cn2cc(-c3ccc(F)cc3)nn2)nn1-c1ncccc1Cl` [Example 16] yielded a chromatographic logP in data set [1] of 2.84. Moreover, the figures for the pest or weed control at 100 g/ha in data set [2] and in data set [3] were 83% and 100%, respectively.

In data set [1], `Cc1cc(Cl)cc(C(=O)NC(C)C)c1NC(=O)c1cc(Cn2cc(C(F)(F)F)nn2)nn1-c1ncccc1Cl` [Example 190] came in with a chromatographic logP of 3.06. Moreover, the pest or weed control at 100 g/ha in data set [2] and in data set [3] was 100% each time.

For `O=C(NCC1CC1)c1cc(Cl)cc(Cl)c1NC(=O)c1cc(Cn2ncc(C(F)(F)F)n2)nn1-c1ncccc1Cl` [Example 152], the chromatographic logP in data set [1] was 3.48. Besides, the pest or weed control at 100 g/ha in data set [2] and in data set [3] was 100% each time.

`CNC(=O)c1cc(C#N)cc(C)c1NC(=O)c1cc(Cn2ncc(-c3ccc(Cl)cc3Cl)n2)nn1-c1ncccc1Cl` [Example 42] registered a chromatographic logP in data set [1] of 3.81. For the same molecule, the pest or weed control at 100 g/ha in data set [2] and in data set [3] was 100% throughout.

As to `CNC(=O)c1cc(C#N)cc(C)c1NC(=O)c1cc(Cn2cc(C(F)(C(F)(F)F)C(F)(F)F)nn2)nn1-c1ccccc1Cl` [Example 295], in data set [1] (setting [4]), the chromatographic logP worked out at 3.46. The pest or weed control at 100 g/ha in data set [2] and in data set [3] was 100% each time.

In the case of `Cc1cc(Cl)cc(C(=O)NCC2CC2)c1NC(=O)c1cc(Cn2nc(C(F)(F)F)c(C(F)(F)F)n2)nn1-c1ncccc1Cl` [Example 406], the chromatographic logP in data set [1] was 4.29. For the same molecule, the pest or weed control at 100 g/ha in data set [2] and in data set [3] was 100% each time.

Consider `Cc1cc(I)cc(C(=O)NC(C)C2CC2)c1NC(=O)c1cc(Cn2cc(C(F)(F)F)nn2)nn1-c1ncccc1Cl` (stereo not drawn) [Example 207], for which, in data set [1], the chromatographic logP was 3.69. In addition, the pest or weed control at 100 g/ha in data set [2] and in data set [3] was 100% each time.

`CNC(=O)c1cc(Cl)cc(C)c1NC(=O)c1cc(Cn2nc3ccc(F)cc3n2)nn1-c1ncccc1Cl` [Example 79]: the chromatographic logP in data set [1] came to 2.89. Further, the pest or weed control at 100 g/ha in data set [2] and in data set [3] was 100% each time.

`CNC(=O)c1cc(C#N)cc(C)c1NC(=O)c1cc(Cn2nc3ccc(Br)cc3n2)nn1-c1ncccc1Cl` [Example 95] displayed a chromatographic logP in data set [1] of 3.01. Further, the pest or weed control at 100 g/ha in data set [2] and in data set [3] was 100% throughout.

As to `CSC[C@H](C)NC(=O)c1cc(Cl)cc(Cl)c1NC(=O)c1cc(Cn2cc(C(F)(F)F)nn2)nn1-c1ncccc1Cl` [Example 202], in data set [1], the chromatographic logP amounted to 3.28. In addition, the pest or weed control at 100 g/ha in data set [2] and in data set [3] was 100% each time.

For `Cc1cc(I)cc(C(=O)NC2CC2)c1NC(=O)c1cc(Cn2ncc(C(F)(C(F)(F)F)C(F)(F)F)n2)nn1-c1ncccc1Cl` [Example 272], the chromatographic logP in data set [1] was found to be 4.26. This molecule also displayed a pest or weed control at 20 g/ha in data set [2] (20 g/ha) of 100%. Also, the pest or weed control at 100 g/ha in data set [3] amounted to 100%.

`CNC(=O)c1cc(C#N)cc(C)c1NC(=O)c1cc(Cn2ncc(C(F)(C(F)(F)F)C(F)(F)F)n2)nn1-c1ccccc1Cl` [Example 297]: in data set [1] (setting [4]), the chromatographic logP worked out at 3.88. Besides, the pest or weed control at 100 g/ha in data set [2] and in data set [3] was 100% each time.

`CNC(=O)c1cc(Cl)cc(C)c1NC(=O)c1cc(Cn2ncc(-c3ccccc3Cl)n2)nn1-c1ncccc1Cl` [Example 27] returned a chromatographic logP in data set [1] of 3.43. The pest or weed control at 100 g/ha in data set [2] and in data set [3] was 100% throughout.

`Cc1cc(Cl)cc(C(=O)NC(C)C)c1NC(=O)c1cc(Cn2nc(C(F)(F)F)c(C(F)(F)F)n2)nn1-c1ncccc1Cl` [Example 409] showed a chromatographic logP in data set [1] of 4.23. In addition, the pest or weed control at 100 g/ha in data set [2] and in data set [3] was 100% throughout.

As to `CNC(=O)c1cc(Cl)cc(C)c1NC(=O)c1cc(Cn2nnc3cc([N+](=O)[O-])ccc32)nn1-c1ncccc1Cl` [Example 71], the chromatographic logP in data set [1] stood at 2.64. Further, the pest or weed control at 100 g/ha in data set [2] and in data set [3] was 100% in each case.

As for `Cc1cc(I)cc(C(=O)NC(C)C2CC2)c1NC(=O)c1cc(Cn2ncc(C(F)(F)F)n2)nn1-c1ncccc1Cl` (stereo not drawn) [Example 158], in data set [1], the chromatographic logP was 4.05. For the same molecule, the pest or weed control at 100 g/ha in data set [2] and in data set [3] was 100% in each case.

`NC(=O)c1cc(Cl)cc(Cl)c1NC(=O)c1cc(Cn2ncc(C(F)(F)F)n2)nn1-c1ncccc1Cl` [Example 145] yielded a chromatographic logP in data set [1] of 2.69. Further, the pest or weed control at 100 g/ha in data set [2] and in data set [3] was 100% in each case.

In data set [1], `CNC(=O)c1cc(Cl)cc(C)c1NC(=O)c1cc(Cn2cc(-c3ccc(Cl)cc3)nn2)nn1-c1ncccc1Cl` [Example 17] came in with a chromatographic logP of 3.57. In addition, the pest or weed control at 100 g/ha in data set [2] and in data set [3] was 100% in each case.

Turning to `Cc1cc(I)cc(C(=O)NC(C)C)c1NC(=O)c1cc(Cn2ncc(C(F)(C(F)(F)F)C(F)(F)F)n2)nn1-c1ncccc1Cl` [Example 267], the chromatographic logP in data set [1] was 4.51. The pest or weed control at 100 g/ha in data set [2] and in data set [3] was 100% each time.
